Measurements reported in patent US20220380430A1, “Non-Transgenic Functional Rescue of Neuropeptides” (Worcester Polytechnic Institute, priority 2021, published 2022).
Entries after “also recorded” stand apart in the source; their conditions may differ. No end group written: not given here.

Columns and labels:
FRPR-16 = molecular target: T1, FRPR-16 (Caenorhabditis elegans, UniProt Q21957); assay: In vitro GPCR activation assay (CHO-K1 cells, aequorin, human Gα16), FRPR-16; type: cell-based, C. elegans; details: for EC50: calcium/aequorin luminescence in transfected CHO-K1 cells; for activation of FRPR-16: in words
T1 sequence (Q21957 1-340): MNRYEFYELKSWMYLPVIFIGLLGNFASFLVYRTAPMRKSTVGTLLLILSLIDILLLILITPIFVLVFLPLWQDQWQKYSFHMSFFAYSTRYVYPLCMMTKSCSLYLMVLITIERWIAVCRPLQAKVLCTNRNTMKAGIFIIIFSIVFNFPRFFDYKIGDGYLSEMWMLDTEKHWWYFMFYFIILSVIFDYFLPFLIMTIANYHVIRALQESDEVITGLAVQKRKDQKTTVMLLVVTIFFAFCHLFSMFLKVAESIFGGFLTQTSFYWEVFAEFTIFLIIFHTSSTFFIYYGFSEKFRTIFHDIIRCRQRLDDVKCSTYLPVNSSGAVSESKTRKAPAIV
Protocol: (§1) The GPCR activation assay was performed as previously described Van Sinay, E. et al. Proc. Natl Acad. Sci. USA 114, E4065-e4074 (2017) and Peymen, K. et al. PLoS Genet. 15, e1007945 (2019). Briefly, npr-10 and frpr-16 cDNAs were cloned into the pcDNA3.1 TOPO expression vector (Thermo Fisher Scientific). A CHO-K1 cell line (PerkinElmer, ES-000-A24) stably expressing apo-aequorin targeted to the mitochondria (mtAEQ) and human Gα16 was transiently transfected with the receptor cDNA construct or the empty pcDNA3.1 vector using Lipofectamine LTX and Plus reagent (Thermo Fisher Scientific). Cells were shifted to 28° C. one day later and allowed to incubate for 24 h. On the day of the assay, cells were collected in BSA medium (DMEM/Ham's F12 with 15 mM HEPES, without phenol red, 0.1% BSA) and loaded with […] coelenterazine h (Thermo Fisher Scientific) for 4 h at room temperature. The incubated cells were then added to synthetic peptides dissolved in DMEM/BSA, and luminescence was measured for 30 s at […] using a Mithras LB940 (Berthold Technologies) or MicroBeta LumiJet luminometer (PerkinElmer). After 30 s of readout, 0.1% triton X-100 was added to lyse the cells, resulting in a maximal calcium response that was measured for 10 s. After initial screening, concentration-response curves were constructed for HPLC-purified FLP-3 peptides by subjecting the transfected cells to each peptide in a concentration range from 1 pM to 10 μM. Cells transfected with an empty vector were used as a negative control. Assays were performed in triplicate on at least two independent days. Concentration-response curves were fitted using Prism v. 7 (nonlinear regression analysis with a sigmoidal concentration-response equation).

NPR-10B = molecular target: T2, NPR-10B (Caenorhabditis elegans, UniProt Q6EUU1); assay: In vitro GPCR activation assay (CHO-K1 cells, aequorin, human Gα16), NPR-10B; type: cell-based, C. elegans; details: for EC50: title: NPR-10B, calcium/aequorin luminescence in transfected CHO-K1 cells; for activation of NPR-10 (NPR-10B): in words
T2 sequence (Q6EUU1 1-362): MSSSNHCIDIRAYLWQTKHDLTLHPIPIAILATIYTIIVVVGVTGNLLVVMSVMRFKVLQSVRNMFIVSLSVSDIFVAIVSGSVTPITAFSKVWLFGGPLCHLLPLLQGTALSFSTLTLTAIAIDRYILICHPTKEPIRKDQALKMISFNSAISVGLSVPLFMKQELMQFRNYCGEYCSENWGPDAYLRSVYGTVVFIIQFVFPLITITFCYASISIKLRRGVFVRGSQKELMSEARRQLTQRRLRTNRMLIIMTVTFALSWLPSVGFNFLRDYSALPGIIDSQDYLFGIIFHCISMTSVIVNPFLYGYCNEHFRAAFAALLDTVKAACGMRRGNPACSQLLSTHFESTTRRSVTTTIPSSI
Protocol: Using Chinese hamster ovarian (CHO) cell cultures stably expressing the promiscuous G protein, Gα16, and the calcium reporter, aequorin, it was observed that both isoforms of NPR-10 are activated by seven of the ten FLP-3 peptides, with half-maximal effective concentrations (EC50) in the nM range (FIG. 14A-FIG. 14H, Table V). […] This peptide contains an R-to-K mutation within the C-terminal motif, which may explain the lack of receptor activation.
as §1

flp-3 lof males = assay: Drop avoidance assay to ascr #8 after FLP-3 peptide rescue-by-feeding; type: in vivo, C. elegans; details: flp-3 lof males raised on peptide; 1 μM ascr #8; in words
Protocol: To identify which FLP-3 peptides are required for male avoidance of ascr #8, a peptide feeding approach https://www.nature.com/articles/s42003-021-02547-7-ref-CR59 was adopted, similar to RNAi feeding (FIG. 16A). Using Gateway Cloning technology, FLP-3 peptide coding sequences were inserted into a bacterial expression vector. As a control, first the FLP-3 peptides were tested that are still encoded in the ok3625 allele which are insufficient to drive the proper ascr #8 response in vivo: FLP-3-1 (SPLGTMRFamide) (SEQ ID NO: 10) and FLP-3-4 (NPLGTMRFamide) (SEQ ID NO: 11). Then flp-3 lof animals were reared on lawns of bacteria expressing the rescue constructs, and their progeny were assayed for avoidance (FIG. 16B-FIG. 16D).
Assays were performed as described previously in Chute, C. D. & Srinivasan, J. Semin. Cell Dev. Biol. 33, 18-24 (2014); Chute, C. D. et al. Nat. Commun. 10, 3186 (2019); and Hilliard, M. A. et al., EMBO J. 23, 1101-1111 (2004). Fifty to sixty L4 worms were segregated by sex and stored at 20° C. for 5 h to overnight to be assayed as young adults. One to four hours prior to the assay, the lids of unseeded plates were tilted to allow any excess moisture to evaporate off the plates. At the time of the assay, 10 or more animals were transferred onto each of the dried, unseeded plates. A drop of either water or 1 μM ascr #8 was placed on the tail of forward moving animals, and their response was scored as either an avoidance response, or no response. The total number of avoidances was divided by the total number of drops to generate an avoidance index for that plate. This was repeated for at least 10 plates over at least three different days.
SCRAMBLE control or FLP-3 peptide constructs were grown overnight in LB media containing […] ampicillin at 37° C. and diluted to an OD600 of 1.0 prior to seeding on NGM plates containing […] ampicillin and 1 mM IPTG. The 75 μL lawn was left to dry and grow overnight at room temperature before three L4 animals were placed on the plates. Males were selected for testing in the same manner as described above but were isolated onto plates also seeded with the same peptide on which they had been reared. Animals were then assayed using either the avoidance assay or single worm assay.

him-5 and pdf-1 males = assay: Excursion (food-leaving) assay after rescue-by-feeding; type: in vivo, C. elegans; details: for PL (confidence interval): Probability of Leaving per hour, beyond 35 mm from food
Text: We quantified the behavioral activity of pdf-1 lof males using a food-leaving behavior as previously described. Individuals were placed on a small food spot, and track patterns were scored at three different time points (2, 6, 24 hrs) (FIG. 4A). “Never left food” indicate the absence of tracks outside the food spot. […] “Major excursion” indicates the presence of tracks past the 1 cm boundary (FIG. 1B, Excursion Assay). The food-leaving behavior was quantified as a measure of mate-searching behavior. In this behavior well-fed males left food in search of mates and the data is represented as a Probability of Leaving (PL) (FIG. 7A).
The mate searching behavior of pdf-1 mutants was quantified in a food leaving assay. him-5 animals were used as wild-type control to ensure the presence of males. him-5 and pdf-1 animals were fed OP50, scramble peptide, PDF-1A, PDF-1B, or a 1:1 mixture of PDF-1A and PDF-1B cultures. Four to six larval L4 hermaphrodites were passed onto an NGM plate containing […] AMP and 1 mM IPTG with 75 μL of peptide. These worms were grown at 20° C. for about 4 days until the male progeny of the initial L4 worms were young adults. The day prior to the assay, young adult male pdf-1 or him-5 worms were singled onto 60 mm plates containing lawns of either OP50 (NGM plates) or appropriate peptide cultures (NGM containing […] AMP and 1 mM IPTG). To determine the mate searching effects of pdf-1, we performed a food-leaving assay as described previously in Barrios, A., et al., Nat Neurosci 15, 1675-1682 (2012); Lipton, J., et al., The Journal of neuroscience: the official journal of the Society for Neuroscience 24, 7427-7434 (2004); Ryan, D. A. et al. Curr Biol 24, 2509-2517 (2014), with modifications. In this assay, individuals were placed on a small food spot, and track patterns were scored at the indicated times. Assay plates were prepared one day prior to assaying on 100 mm plates with 10 mL of Leaving Assay media (25 mM KPO4 (pH 6.0), 1 mM MgSO4, 1 mM CaCl2), 50 mM NaCl, 2.5 g/L Peptone, 17 g/L Agar). On center of plate, 7 μL of OP50 was added. Plates were lightly covered and stored at room temperature overnight (˜20° C., <40% humidity).
On the day of the assay, a single male was plated on the assay plate and placed in a dark, 20° C. incubator. At 2, 6, and 24 hours after the worms are plated, plates were scored for male worm tracks. Scored were separated into binned ranges. “Never left food” indicates the absence of tracks outside the food spot. […] “Major excursion” indicates the presence of tracks past the 1 cm boundary. The food leaving behavior was quantified at three different time points (2, 6, and 24 hours). (FIG. 4A, FIG. 7A, Table IV).
The mate searching defect of pdf-1 was quantified as a Probability of Leaving per hour (PL) (FIG. 4B, FIG. 7B).
The assay was performed across at least two days per condition, with at least n=50, wherein each assay plate with one male is equal to n=1. In all experiments, the investigators were blinded to genotype. Worm in the >35 mm from the center of food bin were scored as “leavers”. The probability of leaving per hour (Probability of Leaving (PL)) was calculated using an R script developed in Barrios et al., with assistance by (Personal Communications to Barrios, 2020). PL was calculated by the “hazard obtained by fitting an exponential parametric survival model to the censored data using maximum likelihood” (Table IV). The PLh-1 values for all pdf-1 animals fed scramble or peptide rescue were compared to him-5 worms fed scramble using an ANOVA followed by Bonferroni's multiple comparison (FIG. 4B, FIG. 7C).

| EC50 (FRPR-16) [nM] | EC50 (NPR-10B) [nM] | Substance | rescue of avoidance phenotype to ascr #8 (Avoidance Index) (flp-3 lof males) | also measured |
| --- | --- | --- | --- | --- |
| 72.1 | 1100 | ASEDALFGTMRF-NH2 [FLP-3-5, ASEDALFGTMRFamide] | – | – |
| 288 | 867 | EAEEPLGTMRF-NH2 [FLP-3-3, EAEEPLGTMRFamide] | – | – |
| – | – | EDGNAPFGTMKFamide (EDGNAPFGTMKF-NH2) [FLP-3-6] | – | activation of FRPR-16 (FRPR-16): did not activate FRPR-16; also recorded: did not activate either receptor; activation of NPR-10 (NPR-10B) (NPR-10B): did not activate NPR-10; also recorded: did not activate either receptor |
| 10.7 | 427 | NPLGTMRF-NH2 [FLP-3-4, NPLGTMRFamide] | unable to rescue the avoidance phenotype on their own | – |
| 39.5 | 439 | SAEPFGTMRF-NH2 [FLP-3-7, SAEPFGTMRFamide] | – | – |
| – | – | SNAELINGLIGMDLGKLSAVG-NH2 [PDF-1A] | – | PL (confidence interval) (him-5 and pdf-1 males; him-5 males): 0.06979 (0.05892, 0.08269); PL (confidence interval) (him-5 and pdf-1 males; pdf-1 males): 0.03287 (0.02657, 0.04224) |
| – | – | SNAELINGLLSMNLNKLSGAG-NH2 [PDF-1B] | – | PL (confidence interval) (him-5 and pdf-1 males; him-5 males): 0.08712 (0.0754, 0.1007); Probability of Leaving, comparison in words (him-5 and pdf-1 males; pdf-1 lof males fed peptide): significantly different PL from pdf-1 males fed PDF-1A alone; rescue of food-leaving behavior (percent of males leaving food) (him-5 and pdf-1 males; pdf-1 lof males, 2, 6, 24 hrs): complete rescue of food-leaving behavior; PL (confidence interval) (him-5 and pdf-1 males; pdf-1 males): 0.05821 (0.04761, 0.07118) |
| 7.4 | 262 | SPLGTMRF-NH2 [FLP-3-1, SPLGTMRFamide] | unable to rescue the avoidance phenotype on their own | – |
| – | – | STVDSSEPVIRDQ [FLP-3-10] | unable to rescue the avoidance phenotype | activation of FRPR-16 (FRPR-16): did not activate FRPR-16; also recorded: did not activate either receptor; activation of NPR-10 (NPR-10B) (NPR-10B): failed to activate the receptor; also recorded: did not activate either receptor |
